The source of these data is publication PMC8617627, “Novel DYRK1A Inhibitor Rescues Learning and Memory Deficits in a Mouse Model of Down Syndrome” (Pharmaceuticals, 2021).

One may read the remaining activity as the signal under treatment as a percentage of the control signal.

The structures appear in SMILES notation. Read-outs that look alike come from different tables or passages of the source.

Holding throughout (test): Kinase profile (33P ATP filter binding)
Common to all, as to format: biochemical

One assay concerns the target HIPK1 (Homo sapiens, UniProt Q86Z02). The note with it: read-out: Remaining protein kinase activity.
The target in the next assay is T1, CHK1 (Homo sapiens, UniProt O14757).
T1 sequence (O14757 1-476): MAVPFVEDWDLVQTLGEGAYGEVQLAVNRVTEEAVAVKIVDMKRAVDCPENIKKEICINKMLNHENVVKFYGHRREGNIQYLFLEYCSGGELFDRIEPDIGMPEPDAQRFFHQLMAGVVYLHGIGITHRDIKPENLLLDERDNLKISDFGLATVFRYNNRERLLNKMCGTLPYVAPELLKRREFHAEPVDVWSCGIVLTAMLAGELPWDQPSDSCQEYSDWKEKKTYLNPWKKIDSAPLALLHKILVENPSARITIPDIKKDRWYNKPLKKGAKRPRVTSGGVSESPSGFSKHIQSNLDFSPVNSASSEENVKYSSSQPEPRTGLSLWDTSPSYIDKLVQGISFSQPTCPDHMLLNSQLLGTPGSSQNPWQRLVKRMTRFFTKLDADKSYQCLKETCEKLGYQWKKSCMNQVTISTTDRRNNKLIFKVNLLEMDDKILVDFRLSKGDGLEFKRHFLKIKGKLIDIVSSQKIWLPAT

Another assay has as its target RIPK2 (Homo sapiens, UniProt O43353). The note with it: read-out: Remaining protein kinase activity.
The target in another assay is PIM3 (Homo sapiens, UniProt Q86V86). The note with it: read-out: Remaining protein kinase activity.
The target of a further assay is MNK1 (Homo sapiens, UniProt Q9BUB5). The note with it: read-out: Remaining protein kinase activity.
The target of the next assay is Lck (Homo sapiens, UniProt P06239). The note with it: read-out: Remaining protein kinase activity.
The next assay addresses BRK (Homo sapiens, UniProt Q13882). The note with it: read-out: Remaining protein kinase activity.
The target in a further assay is T2, IKKe (Homo sapiens, UniProt Q14164).
T2 sequence (Q14164 1-716): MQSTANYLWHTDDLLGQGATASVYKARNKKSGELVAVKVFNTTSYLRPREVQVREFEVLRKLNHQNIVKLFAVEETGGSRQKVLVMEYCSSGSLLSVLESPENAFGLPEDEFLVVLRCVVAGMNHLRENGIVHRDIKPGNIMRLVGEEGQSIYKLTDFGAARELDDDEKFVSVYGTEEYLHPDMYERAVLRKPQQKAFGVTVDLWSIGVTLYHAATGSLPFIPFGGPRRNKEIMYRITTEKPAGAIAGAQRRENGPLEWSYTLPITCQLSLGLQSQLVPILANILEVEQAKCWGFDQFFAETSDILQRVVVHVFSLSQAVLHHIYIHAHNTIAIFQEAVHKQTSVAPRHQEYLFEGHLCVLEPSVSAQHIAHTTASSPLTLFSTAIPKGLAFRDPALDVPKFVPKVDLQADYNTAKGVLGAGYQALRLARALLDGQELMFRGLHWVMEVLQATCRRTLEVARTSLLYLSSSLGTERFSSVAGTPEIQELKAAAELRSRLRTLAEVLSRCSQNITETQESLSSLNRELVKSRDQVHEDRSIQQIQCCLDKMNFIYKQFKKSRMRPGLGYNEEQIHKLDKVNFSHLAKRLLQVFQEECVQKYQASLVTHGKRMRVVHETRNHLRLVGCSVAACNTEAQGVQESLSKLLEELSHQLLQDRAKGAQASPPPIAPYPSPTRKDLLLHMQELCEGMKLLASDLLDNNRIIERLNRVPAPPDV
The note with it: read-out: Remaining protein kinase activity.

The target in a further assay is SIK3 (Homo sapiens, UniProt Q9Y2K2).
The target in the next assay is T3, PKCz (Homo sapiens, UniProt Q05513).
T3 sequence (Q05513 1-592): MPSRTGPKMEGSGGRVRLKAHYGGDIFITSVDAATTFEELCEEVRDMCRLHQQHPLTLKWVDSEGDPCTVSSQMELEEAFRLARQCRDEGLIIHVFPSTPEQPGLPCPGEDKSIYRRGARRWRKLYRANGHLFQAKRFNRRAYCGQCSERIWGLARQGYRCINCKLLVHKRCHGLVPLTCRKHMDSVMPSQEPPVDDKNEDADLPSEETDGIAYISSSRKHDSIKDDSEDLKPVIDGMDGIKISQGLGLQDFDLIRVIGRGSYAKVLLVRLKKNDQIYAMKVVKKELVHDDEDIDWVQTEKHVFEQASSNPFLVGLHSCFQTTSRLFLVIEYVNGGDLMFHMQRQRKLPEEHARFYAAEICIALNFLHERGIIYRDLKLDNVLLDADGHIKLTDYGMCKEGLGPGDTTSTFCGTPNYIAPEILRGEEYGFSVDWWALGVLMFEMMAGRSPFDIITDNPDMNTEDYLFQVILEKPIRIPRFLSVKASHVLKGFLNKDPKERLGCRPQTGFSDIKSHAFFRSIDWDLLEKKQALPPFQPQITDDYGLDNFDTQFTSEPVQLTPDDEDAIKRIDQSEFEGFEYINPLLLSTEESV
The note with it: read-out: Remaining protein kinase activity.

For a further assay, the target named is MARK1 (Homo sapiens, UniProt Q9P0L2). The note with it: read-out: Remaining protein kinase activity.
A further assay addresses DAPK1 (Homo sapiens, UniProt P53355). As to conditions: read-out: Remaining protein kinase activity.

Sequence of Lck (P06239 whole entry): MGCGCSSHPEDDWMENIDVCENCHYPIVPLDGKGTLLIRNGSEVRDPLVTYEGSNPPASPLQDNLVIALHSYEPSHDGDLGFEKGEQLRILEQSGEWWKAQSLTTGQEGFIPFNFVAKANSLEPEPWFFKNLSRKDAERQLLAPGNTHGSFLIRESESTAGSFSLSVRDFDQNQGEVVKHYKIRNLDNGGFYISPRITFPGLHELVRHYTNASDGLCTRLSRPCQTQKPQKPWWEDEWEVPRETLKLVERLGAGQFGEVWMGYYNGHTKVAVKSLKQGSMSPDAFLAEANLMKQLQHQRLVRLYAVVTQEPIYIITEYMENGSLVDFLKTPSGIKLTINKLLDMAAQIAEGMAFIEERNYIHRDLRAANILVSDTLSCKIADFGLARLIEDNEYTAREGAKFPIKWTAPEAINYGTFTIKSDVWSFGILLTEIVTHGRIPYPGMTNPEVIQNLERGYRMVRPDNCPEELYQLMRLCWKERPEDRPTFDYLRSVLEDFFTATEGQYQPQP
Sequence of HIPK1 (Q86Z02 whole entry): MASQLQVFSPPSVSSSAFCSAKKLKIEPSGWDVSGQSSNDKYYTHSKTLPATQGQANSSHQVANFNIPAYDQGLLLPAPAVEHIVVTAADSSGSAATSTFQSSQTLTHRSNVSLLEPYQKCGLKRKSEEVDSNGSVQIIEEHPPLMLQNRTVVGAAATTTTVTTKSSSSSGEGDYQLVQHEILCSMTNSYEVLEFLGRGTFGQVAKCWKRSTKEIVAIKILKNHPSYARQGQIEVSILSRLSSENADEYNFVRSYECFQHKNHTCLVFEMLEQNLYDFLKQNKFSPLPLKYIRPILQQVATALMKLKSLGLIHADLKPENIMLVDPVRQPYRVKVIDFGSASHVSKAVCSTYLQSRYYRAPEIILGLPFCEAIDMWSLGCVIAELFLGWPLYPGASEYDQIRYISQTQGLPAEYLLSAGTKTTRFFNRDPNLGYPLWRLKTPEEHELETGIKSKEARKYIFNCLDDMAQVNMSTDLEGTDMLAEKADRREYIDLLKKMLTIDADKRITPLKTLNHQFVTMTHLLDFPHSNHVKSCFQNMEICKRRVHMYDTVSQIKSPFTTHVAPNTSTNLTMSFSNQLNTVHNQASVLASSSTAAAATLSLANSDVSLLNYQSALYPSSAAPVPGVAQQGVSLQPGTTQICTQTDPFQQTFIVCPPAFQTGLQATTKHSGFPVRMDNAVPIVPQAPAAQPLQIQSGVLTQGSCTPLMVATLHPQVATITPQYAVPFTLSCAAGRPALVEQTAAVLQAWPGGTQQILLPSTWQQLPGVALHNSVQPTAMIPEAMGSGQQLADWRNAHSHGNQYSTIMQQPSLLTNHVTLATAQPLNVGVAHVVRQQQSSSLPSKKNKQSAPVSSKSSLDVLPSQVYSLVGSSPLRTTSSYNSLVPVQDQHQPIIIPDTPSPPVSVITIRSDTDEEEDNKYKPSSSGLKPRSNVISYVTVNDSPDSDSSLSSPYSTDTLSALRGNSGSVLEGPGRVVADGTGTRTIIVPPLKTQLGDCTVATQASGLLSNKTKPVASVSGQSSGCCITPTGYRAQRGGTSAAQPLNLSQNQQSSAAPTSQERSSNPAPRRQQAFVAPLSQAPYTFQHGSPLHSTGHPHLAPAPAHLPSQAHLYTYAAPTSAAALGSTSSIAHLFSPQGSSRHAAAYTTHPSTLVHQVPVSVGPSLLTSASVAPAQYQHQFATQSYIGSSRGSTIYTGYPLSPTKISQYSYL
Sequence of SIK3 (Q9Y2K2 whole entry): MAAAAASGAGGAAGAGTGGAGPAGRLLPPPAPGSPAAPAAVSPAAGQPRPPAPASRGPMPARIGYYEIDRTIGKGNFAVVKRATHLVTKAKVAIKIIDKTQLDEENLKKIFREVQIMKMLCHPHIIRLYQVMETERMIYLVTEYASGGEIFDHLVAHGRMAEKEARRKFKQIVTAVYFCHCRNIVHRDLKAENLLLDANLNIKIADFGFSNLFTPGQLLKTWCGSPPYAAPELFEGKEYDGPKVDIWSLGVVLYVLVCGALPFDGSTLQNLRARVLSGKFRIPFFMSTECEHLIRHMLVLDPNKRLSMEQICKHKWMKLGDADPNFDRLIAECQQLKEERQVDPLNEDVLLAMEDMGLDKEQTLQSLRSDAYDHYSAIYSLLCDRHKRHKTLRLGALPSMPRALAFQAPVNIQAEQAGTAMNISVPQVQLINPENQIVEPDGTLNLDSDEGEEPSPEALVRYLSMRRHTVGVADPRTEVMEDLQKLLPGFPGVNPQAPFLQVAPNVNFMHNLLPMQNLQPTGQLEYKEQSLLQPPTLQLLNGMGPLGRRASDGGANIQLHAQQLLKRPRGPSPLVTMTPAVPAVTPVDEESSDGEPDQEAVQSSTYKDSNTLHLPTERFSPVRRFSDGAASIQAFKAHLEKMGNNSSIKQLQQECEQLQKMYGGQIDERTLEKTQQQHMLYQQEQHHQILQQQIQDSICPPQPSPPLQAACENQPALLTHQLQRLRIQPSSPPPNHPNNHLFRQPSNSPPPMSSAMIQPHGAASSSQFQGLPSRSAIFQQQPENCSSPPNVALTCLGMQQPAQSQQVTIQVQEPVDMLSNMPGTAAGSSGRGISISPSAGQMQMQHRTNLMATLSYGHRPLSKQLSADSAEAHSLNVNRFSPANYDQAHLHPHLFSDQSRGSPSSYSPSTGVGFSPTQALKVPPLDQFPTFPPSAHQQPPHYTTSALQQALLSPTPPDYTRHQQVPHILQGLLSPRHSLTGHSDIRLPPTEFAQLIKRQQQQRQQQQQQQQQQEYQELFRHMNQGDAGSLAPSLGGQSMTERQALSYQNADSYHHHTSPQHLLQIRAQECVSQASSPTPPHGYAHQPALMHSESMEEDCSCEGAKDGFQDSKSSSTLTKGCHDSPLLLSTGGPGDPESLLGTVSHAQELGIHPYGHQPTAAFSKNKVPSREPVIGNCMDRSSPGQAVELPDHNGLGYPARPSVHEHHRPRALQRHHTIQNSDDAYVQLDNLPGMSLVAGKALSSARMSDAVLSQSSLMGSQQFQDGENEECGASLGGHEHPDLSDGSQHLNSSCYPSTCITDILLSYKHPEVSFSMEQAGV
Sequence of MARK1 (Q9P0L2 whole entry): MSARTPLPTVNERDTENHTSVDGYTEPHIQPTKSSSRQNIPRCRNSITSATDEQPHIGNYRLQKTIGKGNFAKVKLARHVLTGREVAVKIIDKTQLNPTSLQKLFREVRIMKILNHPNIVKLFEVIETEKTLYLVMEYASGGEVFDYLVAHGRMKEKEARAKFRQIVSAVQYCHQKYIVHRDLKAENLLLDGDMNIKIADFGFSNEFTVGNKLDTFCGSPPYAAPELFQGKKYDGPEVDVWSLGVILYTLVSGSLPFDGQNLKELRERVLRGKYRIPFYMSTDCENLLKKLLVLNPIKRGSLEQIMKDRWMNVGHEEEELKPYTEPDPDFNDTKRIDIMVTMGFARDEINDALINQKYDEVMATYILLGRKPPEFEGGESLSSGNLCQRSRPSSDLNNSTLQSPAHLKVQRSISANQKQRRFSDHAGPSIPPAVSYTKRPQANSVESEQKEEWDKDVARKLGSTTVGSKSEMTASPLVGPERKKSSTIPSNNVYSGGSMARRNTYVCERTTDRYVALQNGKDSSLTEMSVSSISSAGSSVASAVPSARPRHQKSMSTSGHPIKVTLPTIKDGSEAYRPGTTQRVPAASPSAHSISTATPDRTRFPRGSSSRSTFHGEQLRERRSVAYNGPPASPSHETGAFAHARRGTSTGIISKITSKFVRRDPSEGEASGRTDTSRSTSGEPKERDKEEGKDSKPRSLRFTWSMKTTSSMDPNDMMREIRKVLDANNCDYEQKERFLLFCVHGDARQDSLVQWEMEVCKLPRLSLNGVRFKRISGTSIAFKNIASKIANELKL
Sequence of BRK (Q13882 whole entry): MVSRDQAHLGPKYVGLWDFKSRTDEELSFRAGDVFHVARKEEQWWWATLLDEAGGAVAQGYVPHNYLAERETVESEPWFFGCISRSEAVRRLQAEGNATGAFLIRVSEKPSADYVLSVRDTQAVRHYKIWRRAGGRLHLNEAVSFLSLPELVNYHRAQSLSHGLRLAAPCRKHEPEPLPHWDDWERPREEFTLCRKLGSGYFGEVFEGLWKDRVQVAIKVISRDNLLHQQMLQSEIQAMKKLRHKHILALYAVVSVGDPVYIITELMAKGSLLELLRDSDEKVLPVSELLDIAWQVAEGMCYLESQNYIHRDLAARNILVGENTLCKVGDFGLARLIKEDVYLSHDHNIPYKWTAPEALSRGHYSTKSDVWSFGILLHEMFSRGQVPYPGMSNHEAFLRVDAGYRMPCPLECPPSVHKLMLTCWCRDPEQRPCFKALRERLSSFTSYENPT
Sequence of RIPK2 (O43353 whole entry): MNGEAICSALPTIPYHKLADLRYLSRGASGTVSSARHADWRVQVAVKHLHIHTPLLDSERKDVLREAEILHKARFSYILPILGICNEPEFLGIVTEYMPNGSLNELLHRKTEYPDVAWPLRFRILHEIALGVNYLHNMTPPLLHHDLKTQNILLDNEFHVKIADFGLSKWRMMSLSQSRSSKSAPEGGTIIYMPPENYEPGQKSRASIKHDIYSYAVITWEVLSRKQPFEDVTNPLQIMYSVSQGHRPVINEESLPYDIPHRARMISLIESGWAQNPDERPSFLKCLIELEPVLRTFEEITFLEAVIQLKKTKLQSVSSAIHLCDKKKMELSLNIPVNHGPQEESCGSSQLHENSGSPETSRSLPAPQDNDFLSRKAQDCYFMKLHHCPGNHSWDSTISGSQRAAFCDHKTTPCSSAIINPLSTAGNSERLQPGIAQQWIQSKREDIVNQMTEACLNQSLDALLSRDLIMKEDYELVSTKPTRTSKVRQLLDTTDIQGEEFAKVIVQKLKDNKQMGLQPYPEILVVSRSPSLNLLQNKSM

Consider `COc1ccc2sc(-c3cncc(N)c3)nc2c1` [compound 1, 5-(5-Methoxybenzo[d]thiazol-2-yl)pyridin-3-amine], for which the remaining activity at 1 µM worked out at 116% at HIPK1 (HIPK1, 1 μM); 104% at RIPK2 (RIPK2, 1 μM); 90% at PIM3 (PIM3, 1 μM); 97% at MNK1 (MNK1, 1 μM); 106% on Lck (Lck, 1 μM); 94% at BRK (BRK, 1 μM). Further, the remaining activity at 1 µM on IKKe (IKKe, 1 μM) was 110%; on PKCz (PKCz, 1 μM), 106%; at MARK1 (MARK1, 1 μM) it was 122%; at DAPK1 (DAPK1, 1 μM), 103%. The remaining activity at 100 µM on HIPK1 (HIPK1, 100 μM) is 36%; at RIPK2 (RIPK2, 100 μM), 20%; at PIM3 (PIM3, 100 μM), 24%; at MNK1 (MNK1, 100 μM) it was 20%; on Lck (Lck, 100 μM) it was 52%; on BRK (BRK, 100 μM), 50%. Also, the remaining activity at 100 µM on IKKe (IKKe, 100 μM) amounted to 55%; at PKCz (PKCz, 100 μM), 128%; on MARK1 (MARK1, 100 μM), 69%; on DAPK1 (DAPK1, 100 μM) it was 58%. Moreover, the “Remaining protein kinase activity” value was determined as 101% at CHK1 (1 μM), 86% on CHK1 (100 μM), 106% on SIK3 (1 μM) and 19% on SIK3 (100 μM).
On to `COc1ccc2sc(-c3cncc(NC(C)=O)c3)nc2c1` [PST-001, N-(5-(5-Methoxybenzo[d]thiazol-2-yl)pyridin-3-yl)acetamide], for which the remaining activity at 1 µM on HIPK1 turned out to be 113%; at RIPK2, 109%; on PIM3 it was 93%; on MNK1, 111%; on Lck it was 93%; at BRK, 106%. For the same molecule, the remaining activity at 1 µM on IKKe turned out to be 105%; at PKCz, 119%; on MARK1 it was 122%; on DAPK1 it was 114%. The remaining activity at 100 µM at HIPK1 was found to be 113%; at PIM3, 76%; on MNK1, 94%; on Lck, 100%; on BRK it was 106%; on IKKe it was 122%. For the same molecule, the remaining activity at 100 µM at PKCz turned out to be 124%; at MARK1 it was 110%; at DAPK1, 101%. Moreover, the “Remaining protein kinase activity” value on CHK1 (1 μM) is listed as 104%; on CHK1 (100 μM), 115%; on SIK3 (1 μM), 114%; on SIK3 (100 μM), 78%.
